Drawing on ChEMBL document CHEMBL5352495, “Development of novel pyrazole, imidazo[1,2-b]pyrazole, and pyrazolo[1,5-a]pyrimidine derivatives as a new class of COX-2 inhibitors with immunomodulatory potential” (Eur J Med Chem, 2023), this text covers IC50 and Activity for 13 molecules.

Molecules are shown by their SMILES. pIC50: −log10 of the molar value.

Experiment [1] concerns the target T1, Prostaglandin G/H synthase 2 (Homo sapiens, UniProt P35354).
T1 sequence (P35354 whole entry): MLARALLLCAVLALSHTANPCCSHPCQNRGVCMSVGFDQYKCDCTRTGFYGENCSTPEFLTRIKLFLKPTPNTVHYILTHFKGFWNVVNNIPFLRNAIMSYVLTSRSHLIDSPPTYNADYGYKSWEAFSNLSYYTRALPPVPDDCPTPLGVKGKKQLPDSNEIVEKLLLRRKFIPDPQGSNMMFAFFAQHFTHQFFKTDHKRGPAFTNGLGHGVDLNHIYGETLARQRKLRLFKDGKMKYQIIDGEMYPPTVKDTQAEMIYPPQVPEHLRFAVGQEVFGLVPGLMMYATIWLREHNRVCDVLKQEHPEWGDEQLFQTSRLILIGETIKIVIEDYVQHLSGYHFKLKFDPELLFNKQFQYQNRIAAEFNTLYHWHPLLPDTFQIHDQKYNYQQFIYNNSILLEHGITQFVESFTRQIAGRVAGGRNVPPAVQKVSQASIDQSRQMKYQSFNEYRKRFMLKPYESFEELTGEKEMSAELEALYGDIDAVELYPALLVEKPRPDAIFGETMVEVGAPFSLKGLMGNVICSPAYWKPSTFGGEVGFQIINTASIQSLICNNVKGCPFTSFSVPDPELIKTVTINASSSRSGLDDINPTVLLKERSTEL
Description: Inhibition of COX-2 (unknown origin) incubated for 5 to 10 mins by fluorometric analysis

Experiment [2] has as its system RAW264.7. As to the kind of experiment: Anti-inflammatory activity against LPS-stimulated mouse RAW264.7 cells assessed as inhibition of IL-6 expression at 10 ug by qRT-PCR analysis relative to control. The experiment is classed as functional. Set-up: scale not given: the % may be the effect or the level left. Particulars: dose 10 µg.
The test system of experiment [3] is RAW264.7. As to the kind of experiment: Anti-inflammatory activity against LPS-stimulated mouse RAW264.7 cells assessed as inhibition of TNF alpha expression at 10 ug by qRT-PCR analysis relative to control. The experiment is classed as functional. Set-up: scale not given: the % may be the effect or the level left. As to conditions: dose 10 µg.

`COC(=O)c1cc(=O)n2nc(N)c(/N=N/c3ccc(O)cc3)c2[nH]1` gave a pIC50 in experiment [1] of 4.17. Molecule `Nc1nn2c(-c3cccs3)cc(-c3cccs3)nc2c1/N=N/c1ccc(O)cc1` had a negative logarithm of the IC50 (pIC50) in experiment [1] of 5.47. Also, the Activity in experiment [2] is 70.3%; in experiment [3], 59.2%. `CC1=Nc2c(/N=N/c3ccc(O)cc3)c(N)nn2C1=O` had a pIC50 in experiment [1] of 3.53. The same measure, in the same setting: in the case of `CC(=O)Nc1nn2c(NC(C)=O)cc(=O)[nH]c2c1/N=N/c1ccc(O)cc1` it was 4.80. For the molecule `Cc1cc(=O)n2nc(N)c(/N=N/c3ccc(O)cc3)c2[nH]1`, the pIC50 in experiment [1] was 5.25. In addition, the figures for the Activity in experiment [2] and in experiment [3] were 65.8% and 63.1%, respectively. `COc1ccc(-c2nc3c(/N=N/c4ccc(O)cc4)c(N)nn3c(N)c2C#N)cc1` showed a pIC50 in experiment [1] of 4.68. Same read-out and setting: in the case of `Nc1n[nH]c(/N=C2/C(=O)Nc3ccc(S(=O)(=O)N4CCCC4)cc32)c1/N=N/c1ccc(O)cc1` it was 4.44; in that of `CCOC(=O)C1=Nc2c(/N=N/c3ccc(O)cc3)c(N)nn2C1=O`, 4.10; in that of `CCOC(=O)CC(=O)Nc1[nH]nc(N)c1/N=N/c1ccc(O)cc1`, 3.90. In the case of `Nc1n[nH]c(N=c2c(=O)c3ccccc3c2=O)c1/N=N/c1ccc(O)cc1`, in experiment [1], the pIC50 is 4.21. The same measure, in the same setting: with `N#Cc1c(-c2ccccc2Cl)nc2c(/N=N/c3ccc(O)cc3)c(N)nn2c1N` the figure was 4.07; with `Cc1cc(C)n2nc(N)c(/N=N/c3ccc(O)cc3)c2n1`, 4.33. In the case of `Cc1ccc(-c2cc(C(F)(F)F)nn2-c2ccc(S(N)(=O)=O)cc2)cc1` [CELECOXIB], the values for the Activity in experiment [2] and in experiment [3] were 76.8% and 72.7%, respectively.
